Measured values published in PMC8428848, “Ancient role of sulfakinin/cholecystokinin-type signalling in inhibitory regulation of feeding processes revealed in an echinoderm” (eLife, 2021).
Where “and” joins values, the source holds several entries; their conditions need not be identical. Equal entries are not always repeated. Square brackets hold non-standard residues; d marks the D form. Peptide text beside a SMILES is read from it. sY = N[C@@H](Cc1ccc(OS(=O)(=O)O)cc1)C(=O)O; pGlu = O=C1CC[C@@H](C(=O)O)N1

System: Asterias rubens
Experiment: In vivo feeding behaviour on mussels after injection
Conditions: for time to touch (first contact with a mussel) / time to enclose (time to adopt a feeding posture): 10 nmol (10 µl of 1 mM) injected; for time to touch (first contact with a mussel) / time to enclose (time to adopt a feeding posture) / starfish proceeding to a feeding posture after the first touch: compared with water-injected controls; for time to enclose (time to adopt a feeding posture): p = 0.0523 ArSK/CCK1, p < 0.05 ArSK/CCK2; for starfish proceeding to a feeding posture after the first touch / number of advances to touch the mussel / number of starfish that did not initiate feeding within the 5 hr (300 min) observation period: 10 nmol injected; for starfish proceeding to a feeding posture after the first touch: Fisher's exact test; for number of advances to touch the mussel: data not shown; for number of starfish that did not initiate feeding within the 5 hr (300 min) observation period: n = 11 ArSK/CCK1, n = 19 ArSK/CCK2; for time to touch / time to enclose: individual animals
From the text: Here, the same methods employed by [Tinoco et al., 2018] were used to investigate if ArSK/CCK1 and/or ArSK/CCK2 affect feeding behaviour in starfish. […] Then, starfish were fasted for 24 days and transferred to and kept individually in Plexiglas aquaria, as described previously ([Tinoco et al., 2018]). […] The time taken for starfish to make first contact with a mussel (tube feet touching the mussel or time to touch the mussel), the number of attempts to touch, as well as the time to enclose the mussel (indicated by a feeding posture) were recorded. Starfish that were feeding after 24 hr were included in data analysis and any starfish in the control or test group that had not fed on a mussel after 24 hr were discarded from data analysis.

[1] = 10 µl of 1 mM peptide injected, n = 11
[2] = feeding experiments, count of animals
[3] = feeding experiments, percentage of animals

## CC(C)C[C@H](NC(=O)CNC(=O)[C@H](Cc1c[nH]cn1)NC(=O)CNC(=O)[C@H](Cc1ccc(OS(=O)(=O)O)cc1)NC(=O)[C@H](CC(=O)O)NC(=O)[C@H](CC(=O)O)NC(=O)[C@@H](NC(=O)[C@H](CCCCN)NC(=O)[C@H](CO)NC(=O)[C@@H]1CCC(=O)N1)C(C)C)C(=O)N[C@@H](Cc1ccccc1)C(=O)N[C@@H](Cc1c[nH]c2ccccc12)C(N)=O [ArSK/CCK1] ([pGlu]SKVDD[sY]GHGLFW-NH2)
  time to touch (first contact with a mussel): did not affect
  time to enclose (time to adopt a feeding posture): only a tendency to an increased time to enclose
  starfish proceeding to a feeding posture after the first touch: fewer
  number of advances to touch the mussel: increased number of advances
  number of starfish that did not initiate feeding within the 5 hr (300 min) observation period: four
[1]
  Number of animals, First touch success: 4
  Number of animals, Unsuccessful first touch: 7
  Percentage, First touch success: 36 Percentage
  Percentage, Unsuccessful first touch: 64 Percentage
One line each, 10 µl of 1 mM peptide injected
  time to touch: 10 min and 16 min and 8 min and 4 min and 2 min and 23 min and 19 min and 6 min and 3 min and 22 min and 48 min
One line each, 10 µl of 1 mM peptide injected, observation period 300 min
  time to enclose: 215 min and 29 min and 4 min and 24 min and 10 min and 6 min and 144 min

## CC(C)C[C@H](NC(=O)CNC(=O)[C@H](Cc1ccccc1)NC(=O)CNC(=O)[C@H](Cc1ccc(OS(=O)(=O)O)cc1)NC(=O)[C@H](CCC(N)=O)NC(=O)[C@H](CC(=O)O)NC(=O)[C@H](CC(=O)O)NC(=O)CNC(=O)CN)C(=O)N[C@@H](Cc1ccccc1)C(=O)N[C@@H](Cc1ccccc1)C(N)=O [ArSK/CCK2] (H-GGDDQ[sY]GFGLFF-NH2; N-terminus assumed)
  time to touch (first contact with a mussel): did not affect
  time to enclose (time to adopt a feeding posture): higher
  starfish proceeding to a feeding posture after the first touch: fewer
  number of advances to touch the mussel: increased number of advances
  number of starfish that did not initiate feeding within the 5 hr (300 min) observation period: two
[2]
  Number of animals, First touch success: 12
  Number of animals, Unsuccessful first touch: 6
Feeding experiments
  time to enclose: 11.3 min and 199.3 min and 190.75 min and 21 min and 27 min and 53 min and 49 min and 10 min and 237 min and 12 min and 17 min and 300 min and 77 min and 88 min and 22 min and 50 min and 8 min and 46 min
  time to touch: 9 min and 6.9 min and 13.1 min and 13 min and 24 min and 49 min and 46 min and 6 min and 11 min and 7 min and 14 min and 36 min and 3 min and 18 min and 45 min and 4 min and 40 min
[3]
  Percentage, First touch success: 67%
  Percentage, Unsuccessful first touch: 33%
